Data published in article PMC6338774 (Scientific Reports, 2019).

Legend:
[1] = test system: porcine epithelial intestinal IPEC-J2 cells; assay: WST-1 cell proliferation assay, IPEC-J2 cells; type: cell-based; settings: Sus scrofa, WST-1, 72 h, concentrations 50-200 µM, mean ± SD, na = not active in range tested
Description: (§1) Human promyelocytic leukemia HL-60 cells and human colon cancer cell line Caco-2 were obtained from the American Type Culture Collection (Manassas, VA, USA). […] (Institute of Biotechnology, Faculty of Environment and Natural Sciences, Brandenburg University of Technology Cottbus-Senftenberg, Senftenberg, Germany)[34] were cultured in DMEM medium supplemented with 10% fetal bovine serum (FBS, Invitrogen, Carlsbad, USA), 2 mM glutamine and antibiotics (complete DMEM). Cells (4 × 10^3/well) were grown for 24 h in 96-well plates (Sarstedt, Germany) in appropriate complete medium at 37 °C and atmosphere containing 5% CO2. […] After indicated periods of time, WST-1 mixture was added to each well, and the cells were cultured for additional 6 h. The absorbance at 450 nm was measured on an EnSpire 2300 Multilabel Reader (Perkin-Elmer, USA), and data were analyzed using the program EnSpire 9.0 (Perkin-Elmer, USA). The experiments were performed in triplicates and repeated at least three times independently. Results were presented as mean IC50 (concentration of the tested compound, that inhibits cell proliferation by 50%) ± standard deviation.

[2] = test system: human promyelocytic leukemia HL-60 cells; assay: WST-1 cell proliferation assay, HL-60 cells; type: cell-based; settings: WST-1, 72 h; for IC50: concentrations 50-200 µM, mean ± SD, na = not active in range tested
Description: as §1, with “independently.” for “independently. Results were presented as mean IC50 (concentration of the tested compound, that inhibits cell proliferation by 50%) ± standard deviation.”

[3] = test system: human colon carcinoma Caco-2 cells; assay: WST-1 cell proliferation assay, Caco-2 cells; type: cell-based; settings: WST-1, 72 h; for IC50: concentrations 50-200 µM, mean ± SD, na = not active in range tested
Description: as §1, with “independently.” for “independently. Results were presented as mean IC50 (concentration of the tested compound, that inhibits cell proliferation by 50%) ± standard deviation.”

Solubility in DMSO = type: physicochemical; settings: the reason cytotoxicity was not tested

Row | SMILES | IC50 [1] | IC50 ([2]; Homo sapiens, HL-60) | IC50 ([3]; Homo sapiens, Caco-2) | IC50 [3] | other results
1 | COc1ccc2cc([C@H](C)C(=O)O)ccc2c1 [Compound 2, naproxen, reference compound] | 78.6 ± 15.9 µM | 141 ± 8.51 µM | – | – | –
2 | CC(C)Cc1ccc(C(C)C(=O)OC[C@H](COP(=O)([O-])OCC[N+](C)(C)C)OC(=O)C(C)c2ccc(CC(C)C)cc2)cc1 (mixture of isomers) [Compound 15, 1,2-Di-[2′-(4″-isobutylphenyl)]propanoyl-sn-glycero-3-phosphocholine] | 83.4 ± 1.51 µM | 64.5 ± 10.4 µM | 81.3 ± 17.3 µM | – | –
3 | CC(C)Cc1ccc(C(C)C(=O)O)cc1 (centres unmarked) [Compound 1, ibuprofen, reference compound] | 155 ± 7.57 µM | 106 ± 17.4 µM | 114 ± 10.4 µM | – | concentration up to which non-toxic, HL-60 cells [2]: ≤ 100 µM
4 | CC(C)Cc1ccc([C@H](C)C(=O)OC[C@@H](O)COP(=O)([O-])OCC[N+](C)(C)C)cc1 [Compound 7, 1-[2′S-(4″-Isobutylphenyl)]propanoyl-2-hydroxy-sn-glycero-3-phosphocholine] | – | – | – | 122 ± 2.76 µM | concentration up to which non-toxic, HL-60 cells [2]: 200 µM
5 | CCCCCCCCCCCCCCCC(=O)O[C@H](COC(=O)C(C)c1ccc(CC(C)C)cc1)COP(=O)([O-])OCC[N+](C)(C)C (mixture of isomers) [Compound 9, 1-[2′-(4″-Isobutylphenyl)]propanoyl-2-palmitoyl-sn-glycero-3-phosphocholine] | – | – | – | 125 ± 3.87 µM | IC50 [2]: 67.1 ± 10.9 µM
6 | CCCCCCCCCCCCCCCC(=O)OC[C@H](COP(=O)([O-])OCC[N+](C)(C)C)OC(=O)C(C)c1ccc2cc(OC)ccc2c1 (stereo partly drawn) [Compound 13, 1-Palmitoyl-2-[2′S-(6″-methoxynaphthalenyl)]propanoyl-sn-glycero-3-phosphocholine] | – | – | – | – | solubility in DMSO (Solubility in DMSO): poor solubility
7 | CCCCCCCCCCCCCCCC(=O)OC[C@H](COP(=O)([O-])OCC[N+](C)(C)C)OC(=O)C(C)c1ccc(CC(C)C)cc1 (mixture of isomers) [Compound 12, 1-Palmitoyl-2-[2′-[4″-isobutylphenyl)]propanoyl-sn-glycero-3-phosphocholine] | 79.2 ± 7.86 µM | 77.4 ± 18.2 µM | 135 ± 18.2 µM | – | –
8 | COc1ccc2cc(C(C)C(=O)OC[C@H](COP(=O)([O-])OCC[N+](C)(C)C)OC(=O)C(C)c3ccc4cc(OC)ccc4c3)ccc2c1 (mixture of isomers) [Compound 16, 1,2-Di-[2′-(6″-methoxynaphthalenyl)]propanoyl-sn-glycero-3-phosphocholine] | 58.4 ± 5.67 µM | 80.1 ± 10.9 µM | 68.7 ± 18.4 µM | – | –
9 | CCCCCCCCCCCCCCCC(=O)O[C@H](COC(=O)C(C)c1ccc2cc(OC)ccc2c1)COP(=O)([O-])OCC[N+](C)(C)C (mixture of isomers) [Compound 10, 1-[2′-(6″-Methoxynaphthalenyl)]propanoyl-2-palmitoyl-sn-glycero-3-phosphocholine] | – | – | – | – | concentration up to which non-toxic, Caco-2 cells [3]: ≤ 200 µM; IC50 [2]: 27.1 ± 5.13 µM
10 | COc1ccc2cc([C@H](C)C(=O)OC[C@@H](O)COP(=O)([O-])OCC[N+](C)(C)C)ccc2c1 [Compound 8, 1-[2′S-(6″-Methoxynaphthalenyl)]propanoyl-2-hydroxy-sn-glycero-3-phosphocholine] | – | – | – | 115 ± 26.1 µM | –
